Where a name gives a salt, the structure may show the parent alone. Read-outs that look alike come from different tables or passages of the source.
Legend:
[1] = molecular target: T1, HsDYRK1A (Homo sapiens, UniProt Q13627); test: ADP-Glo kinase assay; format: biochemical; details: for remaining activity at 1 µM / remaining activity at 10 µM: n=2, read-out: % of residual activity Hs_DYRK1A; for IC50: 10 µM ATP, duplicate
T1 construct: host or cells: Sf9 insect cells (baculovirus)

[2] = cytotoxic assay, nuclei count (Hoechst, HCS); format: cell-based; details: human, MCF7 cells (breast carcinoma); 48 h treatment; read-out: Cytotoxic studies IC50 MCF7
Experimental: (§1) To complete our study, we performed a cytotoxicity screening of the 15 molecules, investigating 7 representative cancer cell lines. The compound’s effect on cell viability was evaluated on Huh-7 (hepatocellular carcinoma), CaCo2, HCT-116 (colorectal adenocarcinoma), MCF7, MDA-MB231, MDA-MB468 (breast carcinoma), PC3 (prostate carcinoma) and NCI-H727 (lung carcinoid). Human skin fibroblasts were used as reference for non-cancerous cells. Roscovitine, Doxorubicin and Taxol were used as positive controls. The cells were treated for 48 h with 25 µM compounds and fixed in cooled 90% ethanol/5% acetic acid for 20 min. The nuclei were stained with Hoechst 33342 and counted using HCS technology.
(§2) HuH7, CaCo-2, MDA-MB-231, HCT116, PC3, MCF7 and NCI-H727 cancer cell lines were obtained from the ECACC collection (Porton Down, UK). Cells were grown at 37 °C, 5% CO2 in ECACC recommended media: DMEM for HuH7, MDA-MB-231 and fibroblast, EMEM for MCF7and CaCo-2, McCoy’s for HCT116 and RPMI for PC3 and NCI-H727. All culture media were supplemented with 10% of FBS, 1% of penicillin-streptomycin and 2 mM glutamine.
(§3) Chemicals were solubilized in DMSO at a concentration of 10 mM (stock solution) and diluted in culture medium to the desired final concentrations.
(§4) The cytotoxic assay of chemical was performed at 25 µM. Cells were plated in 96 wells plates (4000 cells/well). Twenty-four hours after seeding, cells were exposed to chemicals. After 48 h of treatment, cells were washed in PBS and fixed in cooled 90% ethanol/5% acetic acid for 20 min and the nuclei were stained with Hoechst 33342 (B2261 Sigma). Image acquisition and analysis were performed using a CellomicsArrayScan VTI/HCS Reader (ThermoScientific, Waltham, MA, USA). The survival percentages were calculated as the percentage of cell number after compound treatment over cell number after DMSO treatment.

[3] = cytotoxic assay, nuclei count (Hoechst, HCS); format: cell-based; details: human, HuH7 cells (hepatocellular carcinoma); 48 h treatment; read-out: Cytotoxic studies IC50 HuH7
[4] = system: Human skin fibroblasts; test: cytotoxic assay, nuclei count (Hoechst, HCS); format: cell-based; details: summary of Table S2
Experimental: as §1, §2, §3, §4

[5] = cytotoxic assay, nuclei count (Hoechst, HCS); format: cell-based, human; details: human, human skin fibroblasts (non-cancerous reference cells); 48 h treatment; some cells add low/moderate/high amplitude; read-out: Cytotoxic studies IC50 Fibroblasts
Experimental: as §1, §2, §3, §4

[6] = cytotoxic assay, nuclei count (Hoechst, HCS); format: cell-based; details: human, 48 h treatment
Experimental: as §1, §2, §3
as §4, with “The cytotoxic assay of chemical was performed at 25 µM.” left out

[7] = molecular target: T2, Hs_CK1ε (Homo sapiens, UniProt P49674); test: ADP-Glo kinase assay, primary screen; format: biochemical; details: n=2, read-out: % of residual activity Hs_CK1ε
T2 construct: host or cells: Sf9 insect cells (baculovirus)

[8] = molecular target: T3, Hs_GSK3β (Homo sapiens, UniProt P49841); test: ADP-Glo kinase assay, primary screen; format: biochemical; details: n=2, read-out: % of residual activity Hs_GSK3β
T3 construct: host or cells: Sf9 insect cells (baculovirus)

[9] = molecular target: T4, Hs_HASPIN (Homo sapiens, UniProt Q8TF76); test: ADP-Glo kinase assay, primary screen; format: biochemical; details: n=2, read-out: % of residual activity Hs_HASPIN
T4 construct: host or cells: bacteria
T4 sequence (Q8TF76 1-798): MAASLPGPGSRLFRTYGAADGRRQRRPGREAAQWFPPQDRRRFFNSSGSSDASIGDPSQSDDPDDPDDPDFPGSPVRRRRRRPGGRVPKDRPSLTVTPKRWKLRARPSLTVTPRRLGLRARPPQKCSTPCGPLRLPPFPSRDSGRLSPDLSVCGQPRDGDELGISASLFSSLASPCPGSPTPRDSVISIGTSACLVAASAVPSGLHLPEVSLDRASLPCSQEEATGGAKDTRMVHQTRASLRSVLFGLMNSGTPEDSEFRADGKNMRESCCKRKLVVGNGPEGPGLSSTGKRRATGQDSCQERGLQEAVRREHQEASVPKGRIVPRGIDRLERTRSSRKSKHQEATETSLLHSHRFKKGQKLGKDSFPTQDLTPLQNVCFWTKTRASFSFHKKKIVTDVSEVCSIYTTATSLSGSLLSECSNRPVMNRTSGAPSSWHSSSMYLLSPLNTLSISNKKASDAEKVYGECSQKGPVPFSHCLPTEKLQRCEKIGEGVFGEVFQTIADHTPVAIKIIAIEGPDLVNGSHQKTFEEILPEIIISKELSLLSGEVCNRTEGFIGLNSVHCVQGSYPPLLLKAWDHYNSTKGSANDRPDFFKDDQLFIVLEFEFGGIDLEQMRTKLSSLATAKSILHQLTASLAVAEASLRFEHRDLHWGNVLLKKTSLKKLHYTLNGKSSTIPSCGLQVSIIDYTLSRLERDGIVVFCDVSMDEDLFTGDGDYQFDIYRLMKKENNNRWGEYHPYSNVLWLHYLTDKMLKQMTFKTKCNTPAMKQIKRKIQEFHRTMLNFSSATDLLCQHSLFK

[10] = molecular target: T5, Rn_DYRK1A (Rattus norvegicus, UniProt Q63470); test: ADP-Glo kinase assay, primary screen; format: biochemical; details: n=2, read-out: % of residual activity Rn_DYRK1A
T5 construct: host or cells: bacteria

[11] = cytotoxic assay, nuclei count (Hoechst, HCS); format: cell-based; details: human, MDA-MB-231 cells (breast carcinoma); 48 h treatment; read-out: Cytotoxic studies IC50 MDA-MB-231
[12] = molecular target: T6, Hs_CDK9/CyclinT (Homo sapiens, UniProt P50750); test: ADP-Glo kinase assay, primary screen; format: biochemical; details: n=2, read-out: % of residual activity Hs_CDK9/CyclinT
T6 construct: host or cells: Sf9 insect cells (baculovirus)

[13] = molecular target: T7, Hs_CDK5/p25 (Homo sapiens, UniProt Q00535); test: ADP-Glo kinase assay, primary screen; format: biochemical; details: n=2, read-out: % of residual activity Hs_CDK5/p25
T7 construct: host or cells: bacteria

[14] = molecular target: T8, MmCLK1 (Mus musculus, UniProt P22518); test: ADP-Glo kinase assay; format: biochemical; details: for remaining activity at 1 µM / remaining activity at 10 µM: n=2, read-out: % of residual activity Mm_CLK1; for IC50: mouse CLK1 orthologue, read-out: IC50 MmCLK1
T8 construct: host or cells: bacteria

[15] = cytotoxic assay, nuclei count (Hoechst, HCS); format: cell-based; details: human, Caco-2 cells (colorectal adenocarcinoma); 48 h treatment; read-out: Cytotoxic studies IC50 Caco2
[16] = molecular target: T9, Hs_PIM1 (Homo sapiens, UniProt P11309); test: ADP-Glo kinase assay, primary screen; format: biochemical; details: n=2, read-out: % of residual activity Hs_PIM1
T9 construct: host or cells: Sf9 insect cells (baculovirus)

[17] = HCT116 cells (colorectal adenocarcinoma), read-out: Cytotoxic studies IC50 HCT116
[18] = MDA-MB-468 cells (breast carcinoma), read-out: Cytotoxic studies IC50 MDA-MB-468

T7 sequence (Q00535 whole entry): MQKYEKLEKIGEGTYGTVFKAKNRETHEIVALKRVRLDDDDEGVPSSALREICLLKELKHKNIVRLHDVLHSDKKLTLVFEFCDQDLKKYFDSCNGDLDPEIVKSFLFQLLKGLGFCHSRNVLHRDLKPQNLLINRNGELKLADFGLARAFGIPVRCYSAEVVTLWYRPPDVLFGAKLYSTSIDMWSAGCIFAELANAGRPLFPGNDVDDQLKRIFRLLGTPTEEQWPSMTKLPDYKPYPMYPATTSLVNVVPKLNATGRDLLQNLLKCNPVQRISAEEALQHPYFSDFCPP
T7 sequence (Q15078 99-307 partner limits assumed): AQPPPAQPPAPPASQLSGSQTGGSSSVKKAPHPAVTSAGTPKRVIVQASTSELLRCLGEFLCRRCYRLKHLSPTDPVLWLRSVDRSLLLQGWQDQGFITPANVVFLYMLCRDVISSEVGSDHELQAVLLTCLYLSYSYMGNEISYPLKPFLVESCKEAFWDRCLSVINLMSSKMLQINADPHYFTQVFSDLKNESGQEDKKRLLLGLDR
T2 sequence (P49674 whole entry): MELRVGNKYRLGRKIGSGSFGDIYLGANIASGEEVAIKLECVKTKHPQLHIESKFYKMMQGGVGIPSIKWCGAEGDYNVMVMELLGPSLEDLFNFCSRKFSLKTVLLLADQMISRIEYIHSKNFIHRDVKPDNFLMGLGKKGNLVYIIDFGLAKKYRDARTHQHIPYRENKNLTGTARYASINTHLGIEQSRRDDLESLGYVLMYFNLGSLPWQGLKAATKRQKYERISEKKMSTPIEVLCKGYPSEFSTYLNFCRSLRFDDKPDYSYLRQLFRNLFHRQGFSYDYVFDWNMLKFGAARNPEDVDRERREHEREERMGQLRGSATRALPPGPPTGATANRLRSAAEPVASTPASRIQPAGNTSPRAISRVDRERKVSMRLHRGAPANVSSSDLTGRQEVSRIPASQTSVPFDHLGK
T6 sequence (P50750 whole entry): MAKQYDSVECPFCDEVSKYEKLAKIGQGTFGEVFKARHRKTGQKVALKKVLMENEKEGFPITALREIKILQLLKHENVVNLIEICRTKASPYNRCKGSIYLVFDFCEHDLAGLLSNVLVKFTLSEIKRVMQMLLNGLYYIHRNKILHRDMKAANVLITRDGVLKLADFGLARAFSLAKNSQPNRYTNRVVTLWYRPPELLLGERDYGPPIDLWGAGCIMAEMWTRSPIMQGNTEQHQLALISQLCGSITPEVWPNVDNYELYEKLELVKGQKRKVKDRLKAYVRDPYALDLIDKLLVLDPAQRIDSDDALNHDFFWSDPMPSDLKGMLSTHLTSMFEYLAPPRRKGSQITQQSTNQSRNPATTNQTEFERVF
T6 sequence (O60563 whole entry partner): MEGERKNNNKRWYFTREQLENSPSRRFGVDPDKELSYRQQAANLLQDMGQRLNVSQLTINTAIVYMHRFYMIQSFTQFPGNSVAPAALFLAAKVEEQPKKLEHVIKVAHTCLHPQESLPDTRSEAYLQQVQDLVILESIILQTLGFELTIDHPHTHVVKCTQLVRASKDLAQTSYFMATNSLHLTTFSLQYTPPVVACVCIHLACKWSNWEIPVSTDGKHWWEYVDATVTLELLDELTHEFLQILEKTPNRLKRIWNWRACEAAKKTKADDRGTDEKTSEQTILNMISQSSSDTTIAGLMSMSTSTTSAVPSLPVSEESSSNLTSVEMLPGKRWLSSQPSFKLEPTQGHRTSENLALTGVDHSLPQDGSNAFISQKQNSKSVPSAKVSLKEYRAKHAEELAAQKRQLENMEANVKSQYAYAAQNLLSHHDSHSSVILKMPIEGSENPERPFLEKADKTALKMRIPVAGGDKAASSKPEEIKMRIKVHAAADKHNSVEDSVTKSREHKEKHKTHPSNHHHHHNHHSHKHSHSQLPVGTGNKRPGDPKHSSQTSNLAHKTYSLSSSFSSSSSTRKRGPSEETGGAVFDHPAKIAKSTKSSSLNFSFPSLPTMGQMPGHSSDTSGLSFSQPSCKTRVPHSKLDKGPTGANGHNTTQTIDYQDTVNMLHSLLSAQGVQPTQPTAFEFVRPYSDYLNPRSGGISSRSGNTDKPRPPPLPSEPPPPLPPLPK
T9 sequence (P11309 whole entry): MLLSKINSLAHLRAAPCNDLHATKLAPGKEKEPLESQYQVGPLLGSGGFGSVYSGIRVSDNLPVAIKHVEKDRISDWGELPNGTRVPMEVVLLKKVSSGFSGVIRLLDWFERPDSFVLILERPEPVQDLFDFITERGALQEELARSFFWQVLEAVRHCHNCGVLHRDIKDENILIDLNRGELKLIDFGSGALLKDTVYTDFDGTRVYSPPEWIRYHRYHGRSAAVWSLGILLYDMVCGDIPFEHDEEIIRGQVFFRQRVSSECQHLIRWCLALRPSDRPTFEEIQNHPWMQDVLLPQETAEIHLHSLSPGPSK
T3 sequence (P49841 whole entry): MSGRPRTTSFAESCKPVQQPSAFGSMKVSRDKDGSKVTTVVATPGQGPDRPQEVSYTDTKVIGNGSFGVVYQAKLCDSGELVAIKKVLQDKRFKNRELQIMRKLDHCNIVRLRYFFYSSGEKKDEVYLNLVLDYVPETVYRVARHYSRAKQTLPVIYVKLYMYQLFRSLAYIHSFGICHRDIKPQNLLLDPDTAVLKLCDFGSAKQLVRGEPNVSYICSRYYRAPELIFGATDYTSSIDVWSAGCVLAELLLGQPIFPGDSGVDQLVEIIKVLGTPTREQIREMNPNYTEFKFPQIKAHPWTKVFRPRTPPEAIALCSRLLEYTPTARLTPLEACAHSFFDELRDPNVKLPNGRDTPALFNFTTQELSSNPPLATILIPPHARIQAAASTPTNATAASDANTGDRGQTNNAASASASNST
T8 sequence (P22518 whole entry): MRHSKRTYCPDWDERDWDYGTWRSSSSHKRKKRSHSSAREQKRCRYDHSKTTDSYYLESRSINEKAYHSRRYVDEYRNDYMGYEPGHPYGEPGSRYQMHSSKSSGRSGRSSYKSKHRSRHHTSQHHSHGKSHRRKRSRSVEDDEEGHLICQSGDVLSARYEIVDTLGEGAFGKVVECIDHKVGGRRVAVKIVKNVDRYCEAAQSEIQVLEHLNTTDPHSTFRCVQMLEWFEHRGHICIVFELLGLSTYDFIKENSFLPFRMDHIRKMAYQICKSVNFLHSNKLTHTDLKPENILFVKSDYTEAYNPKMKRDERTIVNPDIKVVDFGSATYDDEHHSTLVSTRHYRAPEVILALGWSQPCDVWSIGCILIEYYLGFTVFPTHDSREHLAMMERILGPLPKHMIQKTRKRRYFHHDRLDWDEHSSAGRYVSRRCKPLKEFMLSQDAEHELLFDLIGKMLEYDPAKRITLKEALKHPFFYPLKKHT

Row | SMILES | remaining activity at 1 µM [1] [%] | remaining activity at 10 µM [1] [%] | IC50 at 48 h [2] [µM] | IC50 at 48 h [3] [µM] | IC50 at 48 h [5] [µM] | IC50 at 48 h [6, 17] [µM] | IC50 at 48 h [6, 18] [µM] | remaining activity at 1 µM [7] [%] | remaining activity at 10 µM [7] [%] | remaining activity at 1 µM [8] [%] | remaining activity at 10 µM [8] [%] | remaining activity at 1 µM [9] [%] | remaining activity at 10 µM [9] [%] | remaining activity at 1 µM [10] [%] | remaining activity at 10 µM [10] [%] | IC50 at 48 h [11] [µM] | remaining activity at 1 µM [12] [%] | remaining activity at 10 µM [12] [%] | remaining activity at 1 µM [13] [%] | remaining activity at 10 µM [13] [%] | further results
1 | O=[N+]([O-])c1cc(O)ccc1-n1cc(COc2cccc3cnc(Nc4cccc(Cl)c4)nc23)nn1 [12c, N-(3-Chlorophenyl)-8-((1-(4-hydroxy-2-nitrophenyl)-1H-1,2,3-triazol-4-yl)methoxy)quinazolin-2-amine] | ≥ 100 | 60 | 9 | 5 | 6 | 1.3 | 4 | 94 | 81 | 89 | 60 | 83 | 88 | 81 | 45 | 19 | 58 | 39 | 71 | 30 | toxicity towards fibroblasts [4]: moderate toxicity; remaining activity at 1 µM [14]: 36%; remaining activity at 10 µM [14]: 20%; IC50 [14]: 0.177 µM; IC50 at 48 h [15]: 24 µM; remaining activity at 1 µM [16]: 59%; remaining activity at 10 µM [16]: 68%
2 | CC(C)(C)OC(=O)N[C@H]1CC[C@H](n2cc(COc3cccc4cnc(Nc5cc(Cl)cc(Cl)c5)nc34)nn2)CC1 [18b, tert-Butyl ((trans)-4-(4-(((2-((3,5-dichlorophenyl)amino)quinazolin-8-yl)oxy)methyl)-1H-1,2,3-triazol-1-yl)cyclohexyl)carbamate] | ≥ 100 | 85 | > 25 | 10 | > 25 | > 25 | > 25 | ≥ 100 | 92 | 75 | 35 | 72 | 53 | ≥ 100 | ≥ 100 | > 25 | 98 | 83 | 85 | 81 | remaining activity at 1 µM [14]: 86%; remaining activity at 10 µM [14]: 72%; IC50 at 48 h [15]: > 25 µM; remaining activity at 1 µM [16]: 94%; remaining activity at 10 µM [16]: 68%
3 | N[C@H]1CC[C@H](n2cc(COc3cccc4cnc(Nc5cccc(Cl)c5)nc34)nn2)CC1 [19a, 8-((1-((trans)-4-Aminocyclohexyl)-1H-1,2,3-triazol-4-yl)methoxy)-N-(3-chlorophenyl)quinazolin-2-amine hydrochloride] | 84 | 34 | 11 | 8 | 1.3 | 7 | 7 | 73 | 22 | 50 | 23 | 70 | 92 | 78 | 64 | 6 | 65 | 30 | ≥ 100 | 30 | IC50 [1]: 3.72 µM; remaining activity at 1 µM [14]: 20%; remaining activity at 10 µM [14]: 10%; IC50 [14]: 0.2 µM; IC50 at 48 h [15]: 11 µM; remaining activity at 1 µM [16]: 62%; remaining activity at 10 µM [16]: 40%
4 | N[C@H]1CC[C@H](n2cc(COc3cccc4cnc(Nc5cc(Cl)cc(Cl)c5)nc34)nn2)CC1 [19b, 8-((1-((trans)-4-Aminocyclohexyl)-1H-1,2,3-triazol-4-yl)methoxy)-N-(3,5-dichlorophenyl)quinazolin-2-amine hydrochloride] | ≥ 100 | 55 | 3 | 14 | 3 | 4 | 1.3 | 63 | 20 | 44 | 15 | 95 | 90 | 92 | 92 | 2 | 91 | 42 | ≥ 100 | 42 | IC50 [1]: 5.44 µM; remaining activity at 1 µM [14]: 12%; remaining activity at 10 µM [14]: 7%; IC50 [14]: 0.21 µM; IC50 at 48 h [15]: 3 µM; remaining activity at 1 µM [16]: 79%; remaining activity at 10 µM [16]: 44%
